Where no end group is shown, it is not given here. [ ]: non-standard residue; d: D form. Nle = CCCC[C@H](N)C(=O)O; Nva = CCC[C@H](N)C(=O)O
How the values were obtained:
PBMC [1] = assay: IFN-γ induction in PBMC/T cells stimulated with peptide-pulsed autologous DC (ELISA); type: cell-based, human; design: IFN-γ induction at priming compared with E75: dose or concentration left out as unconfirmed; details: for IFN-γ induction at priming compared with E75: two weak E75-responder donors, […] μM on autologous DC; for IFN-γ at priming compared with E75: donor 1; for increase of IFN-γ at priming over E75: donor 2
T2 cells pulsed with E75 [2] = assay: CTL assay: lysis of peptide-pulsed T2 cells by peptide-induced CTL; type: cell-based, human; details: for recognition of E75 by variant-induced CTL compared with E75-induced CTL: donor 1, priming; for E75-specific lytic activity of variant-induced CTL compared with E75-CTL: donor 2
CD8+ cells [3] = assay: Expansion and survival of peptide-stimulated T cells (numbers of live / CD8+ cells); type: cell-based, human; details: for number / survival of stimulated cells at restimulation compared with E75: donor 2; for percentage of live cells: donor 2, 30 days after priming, primed and restimulated
HLA-A2 = HLA-A2 (Homo sapiens, UniProt P04439, D140Y/D185E/D98H/E176V/E277Q/G131W/G231S/I119V/I121R/I166T/I218V/N151K/N90K/P208A/P217A/Q86G/Q94H/R138H/R169H); assay: Molecular modeling of peptide:HLA-A2 complex, accessible surface area (GETAREA 1.1)
PBMC [4] = assay: IL-2 induction in PBMC/T cells stimulated with peptide-pulsed autologous DC (ELISA); type: cell-based, human; details: Donor 3
SKOV3.A2 cells = assay: Cold-target inhibition of lysis of SKOV3.A2 by T2-E75; type: cell-based, human
Bcl-2, Bcl-xL, Bad = type: cell-based, human; details: for up-regulation of Bcl-2 and Bcl-XL: F42SK-CTL restimulated with agonists pulsed on T2
CD8+ cells [5] = assay: Two color FACS (CD62L, CFSE) of peptide-stimulated CD8+ cells; type: cell-based, human; details: Donor 1 CD8+ cells, 20 additional days in IL-2
[6] = system: ovarian tumor OVA-16 (HLA-A2+, HER-2high); assay: Cold-target inhibition of cytolysis of OVA-16 by T2-E75; type: cell-based, human; details: S5K-CTL
From the text: (§1) FIGS. 11A-11C. […] FIGS. 11A and 11B, Cold target inhibition of cytolysis of OVA-16 (HLA-A2, HER-2^high). […] E:T ratio was 10:1; the ratio of cold to hot targets was 1:1. C, IFN γ induction. IL-12 was used at 3 IU (300 pg/ml); the responders to SKOV3. A2 stimulator ratio was 40:1.
(§2) Similar inhibition (38%) was observed against SKOV3.A2 in a 16-h assay. […] The levels of inhibition of lysis indicative of specific recognition were similar to those levels observed with donor 2, E75-CTL, and S5K-CTL (FIG. 8E). S5K-CTL was also tested for the ability to secrete IFN-γ at an encounter with the ovarian tumor SKOV3.A2 and its HLA-A2^− counterpart SKOV3. This was necessary because the tumor and responding lymphocytes shared HLA-A3.

SKOV3.A2 = assay: IFN-γ secretion of S5K-CTL at encounter with ovarian tumor SKOV3.A2; type: cell-based, human; details: SKOV3.A2 stimulator, IL-12 as costimulator
From the text: as §1, §2

E75+TCR cells = E75+TCR cells determined with E75 dimers (dE75), flow cytometry; type: cell-based, human
T2 cells pulsed with E75 [7] = details: cited from earlier work

In the case of “A7.2: E75 with Ala7 replaced by norvaline (NVal), 2 CH2 groups extending linearly from Ala7 (KIFGSL[Nva]FL)”, the “IFN-γ induction at priming” value (PBMC [1]; Donor 3) is reported as “stronger inducer of IFN-γ”, the “IFN-γ response to E75 of primed T cells relative to E75-primed T cells” value (PBMC [1]; E75 at 2 μM, within 16 h, Donor 1) is reported as 3 fold and the IFN-γ induction (PBMC [1]; cells from donors and ovarian cancer patients which did not respond to E75) is reported as “higher levels of IFN-γ than A7.3 and G4.3”. The “IFN-γ induction at priming compared with E75” value (PBMC [1]) was “higher levels of IFN-γ than E75”, the “number of E75-specific LU, schedule 2×A7.3 to 2×A7.2 relative to 4×A7.3” value (T2 cells pulsed with E75 [2]) was “two times higher” and the “increase in number of E75-lytic specific effectors, 2×A7.3 to 2×A7.2 vs 4×A7.3” value (T2 cells pulsed with E75 [2]; 4×2) was 8 fold. The “E75 level recognized by induced CTL” value (T2 cells pulsed with E75 [2]; A7.3-induced, A7.3-restimulated CTL after additional stimulation with A7.2) was 50 nM, the “sensitivity for E75 relative to E75-induced CTL” value (T2 cells pulsed with E75 [2]; CTL at 50 nM level) was “at least 100 fold” and the “lytic activity induced in rested A7.3 CTL by restimulation” value (T2 cells pulsed with E75 [2]; tested 30 h later, no IL-2) was “somewhat higher levels of lytic activity”. The “numbers of CD8+ cells, schedule 2×A7.3 to 2×A7.2 relative to 4×A7.3” value (CD8+ cells [3]) was 4 times.
With “K1FGSL (NLeu)FL (KIFGSL[Nle]FL) [A7.3, 10]” the “change in the surface between E75 and A7.3” value (HLA-A2) was 0.036%, the “IFN-γ induction at priming compared with E75” value (PBMC [1]) was “higher levels of IFN-γ than E75” and the “IL-2 induction at priming” value (PBMC [4]) was “stronger inducer of IL-2 than A7.2”. The “E75 level recognized by induced CTL” value (T2 cells pulsed with E75 [2]; A7.3-induced CTL-TIL restimulated with A7.3) was 200 nM, the “exogenous pulsed E75 concentration recognized by induced CTL” value (T2 cells pulsed with E75 [2]; Donor 4 (CTL-4), three stimulations) was 25 nM and the “inhibition of SKOV3.A2 lysis by T2-E75” value (SKOV3.A2 cells; A7.3-induced CTL-TIL, 5 h CTL assay) was 60%. For the same substance, the “inhibition of lysis of SKOV3-A2 by T2-E75” value (SKOV3.A2 cells; CTL-3 primed with E75 and restimulated, T2-E75 at 100 nM) was 27%, the “up-regulation of Bcl-2 and Bcl-XL” value (Bcl-2, Bcl-xL, Bad) was “significantly stronger stimulators for up-regulation of Bcl-2 and Bcl-XL than F42” and the “Bcl-xL to Bad ratio” value (Bcl-2, Bcl-xL, Bad; S5K-CTL CD8+ cells stimulated 96 h, 25 μg/ml) was “even higher Bcl-xL to Bad ratios than E75”.
For KIFGALAFL [S5A], the “IFN-γ at priming compared with E75” value (PBMC [1]) was “higher levels of IFN-γ”, the “increase of IFN-γ at priming over E75” value (PBMC [1]) was 100% and the “recognition of E75 by variant-induced CTL compared with E75-induced CTL” value (from here on “recognition … compared with E75-induced CTL”) (T2 cells pulsed with E75 [2]) was “recognized E75 better than CTL induced by E75”. The “E75-specific lytic activity of variant-induced CTL compared with E75-CTL” value (T2 cells pulsed with E75 [2]) was “significantly higher”, the “number / survival of stimulated cells at restimulation compared with E75” value (from here on “number / survival … compared with E75”) (CD8+ cells [3]) was “dropped faster” and the “percentage of live cells” value (CD8+ cells [3]) was “decrease in live cells”.
For KIFGGLAFL [S5G], the “IFN-γ at priming compared with E75” value (PBMC [1]) was “higher levels of IFN-γ”, the “increase of IFN-γ at priming over E75” value (PBMC [1]) was 64% and the “recognition … compared with E75-induced CTL” value (T2 cells pulsed with E75 [2]) was “recognized E75 better than CTL induced by E75”. The “CD62L+ cells in the resulting population” value (CD8+ cells [5]) was 4.8%, the “number / survival … compared with E75” value (CD8+ cells [3]) was “dropped faster” and the “percentage of live cells” value (CD8+ cells [3]) was “decrease in live cells”.
In the case of KIFGKLAFL [S5K], the “IFN-γ and IL-2 response of S5K-CTL compared with E75” value (PBMC [1]) is reported as “higher levels of IFN-γ, but lower levels of IL-2”, the “IFN-γ at priming compared with E75” value (PBMC [1]) is reported as “higher levels of IFN-γ” and the “increase of IFN-γ at priming over E75” value (PBMC [1]) is reported as 36%. For the same substance, the “IFN-γ induction compared with E75” value (PBMC [1]; healthy donor responding weakly to E75) was “higher IFN-γ induction”, the “lysis of T2-E75 by peptide-induced CTL” value (T2 cells pulsed with E75 [2]; E75 10 μg/ml, E:T ratio 40:1) was 25.4 % lysis and the “recognition … compared with E75-induced CTL” value (T2 cells pulsed with E75 [2]) was “CTL induced by priming with E75 recognized E75 better”. For the same substance, the “E75-specific lytic activity of variant-induced CTL compared with E75-CTL” value (T2 cells pulsed with E75 [2]) was “lower than the recognition by E75-CTL”, the “recognition (lysis) of peptide-pulsed T2 by E75-CTL” value (T2 cells pulsed with E75 [2]; donor 3 E75-CTL, peptide 50 μg/ml) was 32% and the “inhibition of lysis of SKOV3.A2 by T2-E75” value (SKOV3.A2 cells; S5K-CTL, 16-h assay) was 38%. The “inhibition of tumor lysis by T2-E75 compared with E75-CTL” value (SKOV3.A2 cells; donor 2, E:T 30:1, cold:hot 10:1) was “inhibited less by T2-E75 than lysis by E75-CTL”, the “inhibition of lysis of OVA-16 by T2-E75” value ([6]; 8-h CTL assay) was 21% and the “inhibition of lysis of OVA-16 by T2-E75” value ([6]; 16-h assay) was 45%. For the same substance, the “IFN-γ secretion by peptide-induced CTL” value (SKOV3.A2) was “high levels of IFN-γ within 20 h”, the “up-regulation of Bcl-2 and Bcl-XL” value (Bcl-2, Bcl-xL, Bad) was “slightly stronger up-regulator of Bcl-2 than E75” and the “up-regulation of Bcl-2” value (Bcl-2, Bcl-xL, Bad; S5K-CTL) was “slightly stronger up-regulator of Bcl-2 than E75”. The “increase in number of CD8+ cells of S5K-CTL” value (“increase … of S5K-CTL” below) (CD8+ cells [3]; 50 μg/ml peptide + anti-Fas, 4 days) was 27%, the “numbers of live cells recovered after stimulation and expansion in IL-2” value (CD8+ cells [3]; S5K-CTL stimulated with peptide-pulsed T2) was 2.9 ×10^6 cells and the “increase … of S5K-CTL” value (CD8+ cells [3]; […] μg/ml peptide + anti-Fas, 4 days) was 0.93%. The “number / survival … compared with E75” value (CD8+ cells [3]) was “survived longer than E75-stimulated cells”, the survival of responders (CD8+ cells [3]; donor 3, after third stimulation) was “better survival in responders than E75” and the “increase … of S5K-CTL” value (CD8+ cells [3]; in the absence of CH11) was “no increase in cell number”. For the same substance, the “Bcl-2 levels in small E75+TCR lymphocytes” value (E75+TCR cells; S5K-CTL) was “higher in the small lymphocytes”, the “MCF of E75+TCR expression in small lymphocytes” value (E75+TCR cells; S5K-CTL stimulated 1 wk) was 180 and the “exogenous pulsed E75 recognized by F42SK-CTL” value (T2 cells pulsed with E75 [7]) was 5000 ng/mL.
For KIFGSLAYL [F8Y], the “IFN-γ at priming compared with E75” value (PBMC [1]) was “lower levels of IFN-γ” and the “recognition … compared with E75-induced CTL” value (T2 cells pulsed with E75 [2]) was “CTL induced by priming with E75 recognized E75 better”.
In the case of KIFSGSLAKL [F8K], the “IFN-γ at priming compared with E75” value (PBMC [1]) is reported as “lower levels of IFN-γ” and the “recognition … compared with E75-induced CTL” value (T2 cells pulsed with E75 [2]) is reported as “CTL induced by priming with E75 recognized E75 better”.

— patent US10239916B2, “Controlled modulation of amino acid side chain length of peptide antigens” (Board of Regents, The University of Texas System, priority 2002, dated 2019)
